In brackets after ≈: the same amount, converted by molar mass.
Tests used:
[1] = test system: Candida albicans ATCC 10231; assay: MIC by agar dilution (antifungal); format: cell-based; conditions: Candida albicans, ATCC10231, Candida albicans ATCC 10231, read-out: Minimum inhibitory concentration (MIC)
Description: (§1) The MICs of the synthesized compound were determined by agar dilution method according to the Clinical Laboratory and Standards Institute Guidelines (CLSI, 2015). Briefly, the tested strains were incubated overnight in tryptic soy broth (TSB) (Oxoid, United Kingdom) and then diluted in Muller–Hinton (MH) broth (Oxoid, United Kingdom) to turbidity approximating to the equivalent of 0.5 McFarland standard. The suspensions were further diluted with sterile saline (1:10) and standardized inoculums (approximately 10^4 CFU per spot) were spotted on the surfaces of MH agar (Oxoid, United Kingdom) plates containing different concentrations of tested compounds and a control plate. The MICs were the lowest concentrations that inhibit growth on the plates after incubation at 37 °C for 20 h.

[2] = test system: Aspergillus niger ATCC 16404; assay: MIC by agar dilution (antifungal); format: cell-based; conditions: ATCC16404, read-out: Minimum inhibitory concentration (MIC)
Description: as §1

[3] = test system: P. aeruginosa; assay: Assay of protease production (casein substrate); format: cell-based, Pseudomonas aeruginosa; conditions: sub-MIC
Description: The effect of compounds 5, 7 and 10 on the production of protease was evaluated using casein substrate as described earlier. Briefly, overnight cultures of P. aeruginosa and S. aureus were cultivated in LB broth in the presence or absence of compounds 5, 7 and 10 at ½ MIC for 24 h at 37 °C. The supernatants were collected, mixed (1:1) with 0.05 M casein in phosphate buffer (2%) and NaOH (0.1 M) at pH 7.0, and incubated for 15 min at 37 °C. The reaction was stopped by adding 2 mL of 0.4 M trichloroacetic acid for 30 min at 25 °C. Any precipitates were removed, and the optical densities were detected at 660 nm. The assays were performed in triplicate and the obtained optical densities of tested strains treated with compounds 5, 7 and 10 were expressed as mean ± standard error of percentage change from untreated tested strains control (positive control) and LB (negative control). The protease inhibition percentages were calculated: (O.D control—O.D tested compounds)/O.D control.

[4] = test system: S. aureus; assay: Quantification of staphyloxanthin pigment; format: cell-based, Staphylococcus aureus; conditions: sub-MIC
Description: Staphyloxanthin and intermediate carotenoids were extracted from S. aureus treated or untreated with compounds 5, 7 and 10 at sub-MIC as described. Bacterial cells were cultivated in TSB at 37 °C for 24 h, then cells were collected by centrifugation, and washed twice with phosphate-buffered saline (PBS). The obtained pellets were used to extract staphyloxanthin with methanol. The pellets (5 gm of) were resuspended in 20 mL methanol, and heated with gentle stirring at 55 °C in a water bath for 5 min. Then, the methanol extract liquids were cooled and centrifuged, and the absorbances of the produced staphyloxanthin were quantified spectrophotometrically at 450 nm (Biotek, Winooski, VT, USA). The experiment was repeated in triplicate, and the pigment absorbances in the presence of tested compounds were expressed as mean ± standard error of percentage change from untreated controls. The percentages of pigment production were calculated using the formula: (absorbance of control − absorbance in presence of tested compounds)/absorbance of control.

Compound | MIC [1] | MIC [2] | Production of protease [3] | Production of pigment staphyloxanthin [4] | melting point
COc1ccc(/C=C2/N=C(c3ccccc3NS(=O)(=O)c3ccc(C)cc3)OC2=O)cc1 [Compound 9b, (E)-N-(2-(4-(4-Methoxybenzylidene)-5-oxo-4,5-dihydrooxazol-2-yl)phenyl)-4-methylbenzenesulfonamide] | > 32 µg/mL | > 32 µg/mL | significantly reduced the production of protease | significantly decreased the production | 
Cc1ccc(S(=O)(=O)Nc2ccccc2C2=N/C(=C/c3ccccc3)C(=O)O2)cc1 [Compound 9a, (E)-N-(2-(4-Benzylidene-5-oxo-4,5-dihydrooxazol-2-yl)phenyl)-4-methylbenzenesulfonamide] | 16 µg/mL (≈ 38.2 µM) | 32 µg/mL (≈ 76.5 µM) | significantly reduced the production of protease | significantly decreased the production | 214 to 216 °C
Cc1ccc(S(=O)(=O)Nc2ccccc2C2=N/C(=C/c3ccc([N+](=O)[O-])cc3)C(=O)O2)cc1 [Compound 9f, (E)-4-Methyl-N-(2-(4-(4-nitrobenzylidene)-5-oxo-4,5-dihydrooxazol-2-yl)phenyl)benzenesulfonamide] | > 32 µg/mL | > 32 µg/mL | significantly reduced the production of protease | significantly decreased the production | 250 to 252 °C
